Assay results as given in ChEMBL document CHEMBL1201862, “PubChem BioAssay data set” (2004).
Each block holds one molecule with its values, some of them ahead of it. Calls of active or inactive are those of the source.

Experiments:
Phosphomannomutase 2 = target: T1, Phosphomannomutase 2 (Homo sapiens, UniProt O15305); test: Counter screen SAR assay for PMM2 inhibitors via a fluorescence intensity assay. [Related pubchem assays (depositor defined):AID1545, AID1574]
T1 sequence (O15305 whole entry): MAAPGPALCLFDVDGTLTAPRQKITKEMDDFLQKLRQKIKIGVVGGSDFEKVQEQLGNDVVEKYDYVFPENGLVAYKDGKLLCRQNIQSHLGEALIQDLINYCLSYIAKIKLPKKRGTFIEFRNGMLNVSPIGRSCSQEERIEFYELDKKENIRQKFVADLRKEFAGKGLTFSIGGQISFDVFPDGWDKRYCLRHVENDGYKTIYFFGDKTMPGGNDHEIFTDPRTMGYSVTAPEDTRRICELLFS

[1] = target: T2, Mannose-6-phosphate isomerase (Homo sapiens, UniProt P34949); test: MPI enzyme activity inhibition – biochemical, fluorescence intensity, coupled assay, primary screen (AID 1209)
T2 sequence (P34949 whole entry): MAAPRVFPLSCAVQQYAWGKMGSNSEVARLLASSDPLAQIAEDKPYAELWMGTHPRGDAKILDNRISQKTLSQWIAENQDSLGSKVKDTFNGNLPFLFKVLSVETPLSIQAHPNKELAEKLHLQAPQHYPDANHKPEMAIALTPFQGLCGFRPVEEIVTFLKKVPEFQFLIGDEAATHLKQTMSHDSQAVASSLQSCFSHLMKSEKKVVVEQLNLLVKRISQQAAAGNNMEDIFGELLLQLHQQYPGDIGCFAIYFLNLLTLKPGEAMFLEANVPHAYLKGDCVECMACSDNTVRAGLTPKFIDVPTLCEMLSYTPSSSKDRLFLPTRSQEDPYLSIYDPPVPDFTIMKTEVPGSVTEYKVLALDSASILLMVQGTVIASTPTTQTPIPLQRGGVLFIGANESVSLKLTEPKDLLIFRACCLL

[2] = target: DNA dC->dU-editing enzyme APOBEC-3A (Homo sapiens, UniProt P31941); test: A3A deaminase inhibition for selectivity – biochemical, dose response (AID 504722); assay type: functional
DNA dC->dU-editing enzyme APOBEC-3A, sequence (P31941 whole entry): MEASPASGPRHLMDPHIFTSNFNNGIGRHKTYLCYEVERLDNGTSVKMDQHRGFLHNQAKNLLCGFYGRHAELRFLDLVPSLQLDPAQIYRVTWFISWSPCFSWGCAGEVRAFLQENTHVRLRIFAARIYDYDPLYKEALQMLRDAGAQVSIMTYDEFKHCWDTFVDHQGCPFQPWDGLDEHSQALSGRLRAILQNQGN

[3] = target: FAD-linked sulfhydryl oxidase ALR (Homo sapiens, UniProt P55789); test: ALR-catalysed DTT oxidation blockers – biochemical, H2O2 detection, luminescence, cherry-pick, dose response (AID 493248)
FAD-linked sulfhydryl oxidase ALR, sequence (P55789 whole entry): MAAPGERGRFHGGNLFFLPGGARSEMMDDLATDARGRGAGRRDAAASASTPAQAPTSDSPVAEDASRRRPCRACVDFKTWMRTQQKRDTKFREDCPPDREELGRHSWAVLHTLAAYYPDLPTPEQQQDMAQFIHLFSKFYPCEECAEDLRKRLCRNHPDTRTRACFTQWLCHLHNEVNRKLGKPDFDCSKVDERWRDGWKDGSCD

[4] = target: T2, Mannose-6-phosphate isomerase; test: phosphomannose isomerase inhibition – biochemical, fluorescence intensity, confirmation (AID 1535)
[5] = target: DNA dC->dU-editing enzyme APOBEC-3G (Homo sapiens, UniProt Q9HC16); test: Dose Response confirmation of small molecule APOBEC3G DNA Deaminase Inhibitors via a fluorescence-based single-stranded DNA deaminase assay. [Related pubchem assays (depositor defined):AID493012, AID493028]; assay type: functional
[6] = NIH3T3 cell viability loss – ATP luminescence, mouse fibroblasts, counter-screen, dose response (AID 2010); assay type: functional, cell-based;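 further: cells exposed to compound for about 90 hours before reading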
[7] = Trypanosoma cruzi growth suppression in host cells – NIH3T3 host cells, beta-gal luminescence, confirmation (AID 2044); assay type: functional, cell-based;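 further: intracellular parasites grown in NIH/3T3 mouse fibroblasts as host cells; luminescent beta-galactosidase reporter signal from transgenic T. cruzi replicating inside host cells; inhibitors lower the luminescence signal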
[8] = target: Lytic switch protein BZLF1 (Epstein-Barr virus (strain B95-8) (HHV-4) (Human herpesvirus 4), UniProt P03206); test: inhibition of BZLF1 ZTA DNA binding – biochemical, fluorescence polarization, Epstein-Barr virus, 1536-well, counter-screen for EBNA-1 inhibitor project, dose response (AID 2377); design: species or system human gammaherpesvirus 4;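 further: fluorescence polarization of Cy5-labelled ZRE DNA probe bound by purified Zta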
[9] = target: Epstein-Barr nuclear antigen 1 (Epstein-Barr virus (strain B95-8) (HHV-4) (Human herpesvirus 4), UniProt P03211); test: inhibition of EBV nuclear antigen 1 DNA binding – biochemical, fluorescence polarization, 1536-well, dose response (AID 2381); design: species or system human gammaherpesvirus 4;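 further: fluorescence polarization of a Cy5 DNA probe bound by EBNA-1 protein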
Epstein-Barr nuclear antigen 1, sequence (P03211 whole entry): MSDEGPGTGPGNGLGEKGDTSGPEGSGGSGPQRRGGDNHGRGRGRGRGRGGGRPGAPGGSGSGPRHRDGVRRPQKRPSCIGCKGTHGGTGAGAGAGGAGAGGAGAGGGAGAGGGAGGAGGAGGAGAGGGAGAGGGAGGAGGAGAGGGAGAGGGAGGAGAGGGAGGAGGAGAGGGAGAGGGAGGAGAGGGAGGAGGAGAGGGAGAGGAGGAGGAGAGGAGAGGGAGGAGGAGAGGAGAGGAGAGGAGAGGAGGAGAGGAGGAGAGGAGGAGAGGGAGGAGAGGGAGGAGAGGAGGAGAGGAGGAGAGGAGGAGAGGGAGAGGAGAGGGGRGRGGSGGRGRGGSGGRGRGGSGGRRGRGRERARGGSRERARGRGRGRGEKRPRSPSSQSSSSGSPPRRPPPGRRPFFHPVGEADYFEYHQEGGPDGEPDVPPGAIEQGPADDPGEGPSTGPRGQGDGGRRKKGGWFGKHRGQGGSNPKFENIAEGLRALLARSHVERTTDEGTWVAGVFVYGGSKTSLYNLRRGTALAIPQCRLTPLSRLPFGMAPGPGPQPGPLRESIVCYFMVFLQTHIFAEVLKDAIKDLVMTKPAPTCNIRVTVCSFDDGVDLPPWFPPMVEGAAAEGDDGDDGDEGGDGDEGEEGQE

Mucolipin-3 = Mucolipin-3 (Homo sapiens, UniProt Q8TDD5); test: Dose response cell-based high-throughput screening assay for agonists of the transient receptor potential channel ML3 (TRPML3). [Related pubchem assays: 1526, 1424, 1448 ]; assay type: functional
Mucolipin-3, sequence (Q8TDD5 whole entry): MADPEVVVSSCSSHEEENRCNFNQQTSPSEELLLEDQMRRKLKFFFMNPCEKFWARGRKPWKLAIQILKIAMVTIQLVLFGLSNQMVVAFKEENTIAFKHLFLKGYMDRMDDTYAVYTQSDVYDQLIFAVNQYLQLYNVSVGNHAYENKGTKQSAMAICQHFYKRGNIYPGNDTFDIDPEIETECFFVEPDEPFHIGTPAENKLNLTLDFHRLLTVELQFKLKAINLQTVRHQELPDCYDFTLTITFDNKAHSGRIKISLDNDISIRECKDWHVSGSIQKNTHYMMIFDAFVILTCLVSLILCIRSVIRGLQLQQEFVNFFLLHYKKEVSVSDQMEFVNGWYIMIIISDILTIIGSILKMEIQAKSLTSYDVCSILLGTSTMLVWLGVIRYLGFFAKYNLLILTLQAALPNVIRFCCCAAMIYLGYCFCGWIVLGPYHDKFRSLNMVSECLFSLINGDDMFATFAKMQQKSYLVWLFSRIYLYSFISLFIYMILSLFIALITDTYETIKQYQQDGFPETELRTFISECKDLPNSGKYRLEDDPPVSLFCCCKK

Ion channel NompC = Ion channel NompC (Danio rerio, UniProt Q7T1G6); test: Fluorescence counterscreen assay for TRPML3 agonists: dose response cell-based high-throughput screening assay to identify agonists of the transient receptor potential channel N1 (TRPN1). [Related pubchem assays: 1526, 1424, 1448 ]; assay type: functional
Ion channel NompC, sequence (Q7T1G6 whole entry, the tested form may be a part): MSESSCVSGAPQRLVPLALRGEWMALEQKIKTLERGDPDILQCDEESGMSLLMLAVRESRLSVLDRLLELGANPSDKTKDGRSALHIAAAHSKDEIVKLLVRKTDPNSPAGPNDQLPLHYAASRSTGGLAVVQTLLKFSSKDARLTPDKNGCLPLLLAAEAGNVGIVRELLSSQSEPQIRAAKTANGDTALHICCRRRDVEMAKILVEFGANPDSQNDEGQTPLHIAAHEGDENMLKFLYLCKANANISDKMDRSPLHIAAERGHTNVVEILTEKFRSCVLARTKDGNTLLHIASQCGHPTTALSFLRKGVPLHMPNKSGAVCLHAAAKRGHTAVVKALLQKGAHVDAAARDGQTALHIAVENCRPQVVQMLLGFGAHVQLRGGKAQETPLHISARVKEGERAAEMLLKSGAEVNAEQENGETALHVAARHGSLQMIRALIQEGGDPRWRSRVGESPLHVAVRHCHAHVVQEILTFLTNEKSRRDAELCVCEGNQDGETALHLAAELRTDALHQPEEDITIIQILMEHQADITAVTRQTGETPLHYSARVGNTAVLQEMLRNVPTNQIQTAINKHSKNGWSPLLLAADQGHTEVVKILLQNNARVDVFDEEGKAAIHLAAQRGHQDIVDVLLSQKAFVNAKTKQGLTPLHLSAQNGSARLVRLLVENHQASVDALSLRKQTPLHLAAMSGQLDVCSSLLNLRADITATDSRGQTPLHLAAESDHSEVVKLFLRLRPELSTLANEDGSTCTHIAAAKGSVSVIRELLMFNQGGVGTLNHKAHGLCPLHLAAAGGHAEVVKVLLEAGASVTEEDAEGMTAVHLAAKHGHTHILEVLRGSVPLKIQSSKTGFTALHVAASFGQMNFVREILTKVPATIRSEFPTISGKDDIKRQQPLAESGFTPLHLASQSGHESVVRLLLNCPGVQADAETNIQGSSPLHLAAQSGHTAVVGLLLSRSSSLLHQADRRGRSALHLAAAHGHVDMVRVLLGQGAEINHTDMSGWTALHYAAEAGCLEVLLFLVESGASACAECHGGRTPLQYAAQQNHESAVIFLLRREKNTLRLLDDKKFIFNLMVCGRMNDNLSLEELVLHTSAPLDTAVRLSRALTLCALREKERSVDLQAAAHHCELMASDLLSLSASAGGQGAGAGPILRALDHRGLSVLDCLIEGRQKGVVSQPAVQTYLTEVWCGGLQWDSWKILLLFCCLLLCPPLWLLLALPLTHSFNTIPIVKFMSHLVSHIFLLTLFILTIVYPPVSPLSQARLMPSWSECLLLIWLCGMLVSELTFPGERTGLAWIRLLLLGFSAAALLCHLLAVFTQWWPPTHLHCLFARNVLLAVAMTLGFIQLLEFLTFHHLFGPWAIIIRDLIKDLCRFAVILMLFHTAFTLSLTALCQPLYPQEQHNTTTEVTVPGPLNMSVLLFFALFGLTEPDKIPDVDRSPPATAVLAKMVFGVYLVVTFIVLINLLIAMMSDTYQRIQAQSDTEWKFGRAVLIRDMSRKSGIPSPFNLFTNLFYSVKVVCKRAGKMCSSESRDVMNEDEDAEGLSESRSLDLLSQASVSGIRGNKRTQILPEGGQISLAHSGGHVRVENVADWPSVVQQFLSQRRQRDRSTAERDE

[10] = target: T3, Polyadenylate-binding protein 1 (Homo sapiens, UniProt P11940); test: MLLE domain peptide-binding blockers, IC50 – biochemical, fluorescence polarization, FITC-PAM2 peptide, dose response (AID 602259); assay type: functional; conditions: read-out: IC50_Mean
T3 sequence (P11940 whole entry, the tested form may be a part): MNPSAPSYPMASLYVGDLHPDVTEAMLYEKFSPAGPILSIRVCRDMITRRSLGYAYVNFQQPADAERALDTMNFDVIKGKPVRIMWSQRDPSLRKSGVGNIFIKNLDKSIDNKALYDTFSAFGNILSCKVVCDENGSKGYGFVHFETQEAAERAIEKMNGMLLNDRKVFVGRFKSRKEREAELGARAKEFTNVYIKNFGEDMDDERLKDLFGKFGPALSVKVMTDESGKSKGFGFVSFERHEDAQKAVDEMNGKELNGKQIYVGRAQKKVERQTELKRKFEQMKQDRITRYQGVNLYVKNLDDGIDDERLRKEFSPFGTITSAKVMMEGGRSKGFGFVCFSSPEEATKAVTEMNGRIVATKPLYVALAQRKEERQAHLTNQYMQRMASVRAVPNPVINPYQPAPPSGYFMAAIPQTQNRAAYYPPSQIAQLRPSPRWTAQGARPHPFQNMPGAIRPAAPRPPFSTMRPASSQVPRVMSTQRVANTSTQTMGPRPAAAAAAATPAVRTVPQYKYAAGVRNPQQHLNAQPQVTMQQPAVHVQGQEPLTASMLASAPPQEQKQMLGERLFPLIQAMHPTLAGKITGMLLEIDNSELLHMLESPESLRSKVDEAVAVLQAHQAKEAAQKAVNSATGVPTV

[11] = target: T3, Polyadenylate-binding protein 1; test: MLLE binding blockers, Cy5 peptide tracer – biochemical, fluorescence polarization, Cy5-PAM2 peptide, secondary, miRNA deadenylation inhibitor project, dose response (AID 602260); assay type: functional; conditions: read-out: IC50_Mean
[12] = target: Protein-tyrosine kinase 2-beta (Homo sapiens, UniProt Q14289);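 further: potency of inhibitors of PYK2 kinase phosphorylation of poly-GT substrate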
Protein-tyrosine kinase 2-beta, sequence (Q14289 whole entry): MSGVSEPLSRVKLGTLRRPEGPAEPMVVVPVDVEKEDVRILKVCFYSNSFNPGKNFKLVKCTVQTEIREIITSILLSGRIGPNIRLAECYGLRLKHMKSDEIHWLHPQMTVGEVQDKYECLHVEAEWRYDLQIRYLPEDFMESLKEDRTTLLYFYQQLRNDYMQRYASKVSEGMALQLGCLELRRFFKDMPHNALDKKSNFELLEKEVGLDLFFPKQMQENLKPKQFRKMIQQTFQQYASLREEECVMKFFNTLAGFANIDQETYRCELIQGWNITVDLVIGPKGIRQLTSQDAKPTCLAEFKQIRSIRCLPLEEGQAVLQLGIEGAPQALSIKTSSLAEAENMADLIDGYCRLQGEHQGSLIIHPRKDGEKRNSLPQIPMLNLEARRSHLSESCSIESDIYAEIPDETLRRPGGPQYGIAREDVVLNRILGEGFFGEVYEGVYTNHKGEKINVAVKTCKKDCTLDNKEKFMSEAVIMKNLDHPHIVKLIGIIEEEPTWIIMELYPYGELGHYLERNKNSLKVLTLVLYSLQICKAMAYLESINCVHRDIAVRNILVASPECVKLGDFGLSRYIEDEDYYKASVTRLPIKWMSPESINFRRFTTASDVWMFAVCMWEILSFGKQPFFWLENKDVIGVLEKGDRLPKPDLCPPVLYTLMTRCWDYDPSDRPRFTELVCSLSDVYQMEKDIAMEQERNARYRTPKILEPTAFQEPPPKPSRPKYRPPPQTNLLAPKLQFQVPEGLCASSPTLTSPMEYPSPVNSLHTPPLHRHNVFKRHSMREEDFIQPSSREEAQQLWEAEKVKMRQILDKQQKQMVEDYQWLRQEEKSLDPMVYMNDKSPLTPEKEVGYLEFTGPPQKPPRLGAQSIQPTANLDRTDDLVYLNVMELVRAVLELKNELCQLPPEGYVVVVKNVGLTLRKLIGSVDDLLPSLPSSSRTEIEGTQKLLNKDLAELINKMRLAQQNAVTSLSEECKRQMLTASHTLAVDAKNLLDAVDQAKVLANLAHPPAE

P388 = test: cells; assay type: functional; conditions: Mus musculus, P388
[13] = Luminescence-based dose response cell-based high throughput screening assay for cytotoxic compounds using the IEC-6 intestinal epithelial cell line. [Related pubchem assays: 1858 (Summary AID.), 1825 (Counterscreen.), 1907 (Confirmation screen.)]; assay type: functional
SN12K1 = test: cells; assay type: functional; conditions: Homo sapiens
[14] = target: T2, Mannose-6-phosphate isomerase; test: MPI inhibition at elevated mannose 6-phosphate – biochemical, fluorescence intensity, high mannose 6-phosphate, primary screen (AID 1220)
[15] = viability loss in THP-1 monocytes – THP-1 cells, cytotoxicity control for Vif-APOBEC3G degradation inhibitor project, dose response (AID 1117359); assay type: functional; conditions: THP-1
P388/ADR = test: cells; assay type: functional; conditions: Mus musculus, P388/ADR

Compound: COc1ccc(-c2n[nH]c(=S)[nH]2)cc1OC
IC50 (Phosphomannomutase 2): > 100 µM (inactive)
IC50 [1]: 8.55 µM (active)
IC50 [2]: > 100 µM (inactive)
AC50 [3]: 0.011 µM (active)
IC50 [4]: 29 µM (active)
IC50 [5]: 3.45 µM (active)

Compound: CCCCc1c(CCC)c(=N)c2ccccc2n1C
EC50 [6]: > 60 µM (inconclusive)
EC50 (cells): 0.017 µM (active)
EC50 [7]: < 0.1 µM (active)

Compound: COC1=C(N)C(=O)c2nc(-c3nc(C(=O)O)c(C)c(-c4ccc(OC)c(OC)c4O)c3N)ccc2C1=O [STREPTONIGRIN]
GI50 (P388): 0.0352 µM (active)
IC50 [13]: 0.0094 µM (active)
GI50 (SN12K1): < 0.01 µM (active)
IC50 [14]: > 50 µM (not active)
CC50 [15]: 2.96 µM (active)
GI50 (P388/ADR): 0.0287 µM (active)

Now from value to molecule:

IC50 [8]: > 111 µM (not active)
IC50 [9]: 39.9 µM (not active)
Compound: Cc1ccccc1OCCn1cc(/C=C(\C#N)C(=O)NCc2ccco2)c2ccccc21

EC50 (Mucolipin-3): 5.29 µM (active)
EC50 (Ion channel NompC): > 29.9 µM (not active)
IC50 [10]: > 66 µM (inactive)
IC50 [11]: > 66 µM (inactive)
Compound: O=C1C(Cl)=C(N2CCN(Cc3ccccc3)CC2)C(=O)N1Cc1ccccc1

IC50 [12]: > 69.5 µM (not active)
Compound: N#Cc1cnn2c1nc(N1CCOCC1)c1ccccc12
